The values that follow come from patent US8686016B2, “Schweinfurthins and uses thereof” (The United States of America, as represented by the …, priority 2009, dated 2014).

Entries after “also recorded” stand apart in the source; their conditions may differ.

For one test, the system named is MPNST T265 cells. Description: XTT cell proliferation assay, T265. It is filed as cell-based, human. As to the method: (§1) XTT Cell Proliferation Assay: Cells were seeded into 96-well plates at a density of 2,000 cells/well and allowed to reattach overnight. Cells were treated with SA, synthetic analogs, camptothecin (NCI Chemotherapeutics Repository, Md., USA), or DMSO control at the indicated concentrations continuously for 48 hours followed by assay in the 96-well plate for relative viable cell number using the dye […] (XTT) and a Wallac-Victor 2 plate reader (Perkin-Elmer, Waltham, Mass., USA). Absorbance was determined at 450 nm with 650 nm as a reference reading. Primary astrocytes were additionally assayed at a 96 hour time point.
Cell lines and culture: Human MPNST cell lines (STS26T and T265) were obtained from the Pediatric Oncology Branch, NCI (Bethesda, Md., USA).
(Tetrazolium dyes change colour on reduction, which living cells bring about.)

For the next test, the system named is MPNST K14553 cells. In words: XTT cell proliferation assay, K14553. It is filed as cell-based, mouse. As to the method: Establishment of NPcis MPNST cell lines: Mice were euthanized by CO2 asphyxiation and tumors were dissected. The tumor volume was measured. The tumor was then cut in half, and ½ fixed in 4% PFA. The other half was rinsed, then cut into 24 pieces of approximately equal size. Each piece was diced with a razor blade and placed in 1 well of a 24 well plate, along with 625 μL of Triple Express (Gibco, Grand Island, N.Y., USA) and 5 μL of recombinant DNAse (Roche, Indianapolis, Ind., USA). Tumors were triturated, then incubated at 37° C. in a 5% CO2 incubator for 2-5 hours, with an additional trituration halfway through incubation time. At the end of the incubation, tumor pieces were triturated again, and suspended cells were transferred to 1.5 mL eppendorf tubes. […] Both plates were monitored for cell growth, grown up to 10 cm plates, and frozen down in 10% DMSO. […]
XTT Cell Proliferation Assay: Cells were seeded into 96-well plates at a density of 2,000 cells/well and allowed to reattach overnight. Cells were treated with SA, synthetic analogs, camptothecin (NCI Chemotherapeutics Repository, Md., USA), or DMSO control at the indicated concentrations continuously for 48 hours followed by assay in the 96-well plate for relative viable cell number using the dye […] (XTT) and a Wallac-Victor 2 plate reader (Perkin-Elmer, Waltham, Mass., USA). […]

In test [1] the test system is KR158 cells transduced with empty vector (PMSCV). In words: XTT cell proliferation assay, KR158 empty vector. It is filed as cell-based, mouse. As to conditions: two-day cell proliferation assay. As to the method:
as §1
Constructs and Transfections: NF1-GRD retroviral constructs were obtained from Indiana University. Cells transduced with the NF1-GRD construct or PMSCV empty vector control as previously described (Hiatt et al., J. Biol. Chem., 2001, 276:7240-5) were maintained in 1 μg/mL puromycin (Sigma).

The test system of test [2] is SF-295 human glioma cells. Description: Clonogenic assay, SF-295. As to conditions: 18 hrs treatment, colonies after one week. The class given is cell-based. As to the method:
Clonogenic Assays: Monolayers of cells were treated for 18 hrs with SA, and then harvested, counted, and seeded to 35 mm dishes at a density of 1000 cells per dish. After one week, macroscopic colonies were stained with crystal violet (Sigma, St. Louis, Mo., USA) and counted.

As to `CC(C)=CCC/C(C)=C/Cc1c(O)cc(/C=C/c2cc(O)c3c(c2)C[C@@H]2C(C)(C)[C@H](O)[C@H](O)C[C@@]2(C)O3)cc1O` [SA, Schweinfurthin A], the “inhibition of proliferation (percent viability versus control)” value was “potent inhibition of cell proliferation; also recorded: sensitive” in the test with MPNST T265 cells and “dose dependent inhibition of proliferation; also recorded: sensitive” in the test with MPNST K14553 cells. The inhibition of proliferation entry in test [1] is reported as “highly active”. The colony growth entry in test [2] is recorded as “inhibited; also recorded: dramatically restricted”.
